Test results reported in patent US8148378B2, “Pyridazine derivatives and their use as inhibitors of stearoyl-CoA desaturase-1 activity in a mammal” (Xenon Pharmaceuticals Inc., priority 2003, dated 2012).
Where two headings read alike, the source gives them in different places.

Tests used:
[1] = molecular target: T1, Stearoyl-CoA Desaturase (SCD) (Mus musculus, UniProt P13516); assay: Stearoyl-CoA desaturase inhibition using mouse liver microsomes; assay type: biochemical; details: for Residual Activity (% remaining, 1 μM): % SCD enzyme activity remaining at 1 μM test compound; for Residual Activity (% remaining, 10 μM): % SCD enzyme activity remaining at 10 μM test compound
T1 construct: from tissue; host or cells: liver microsomes of male ICR mice on a high-carbohydrate, low fat diet
T1 sequence (P13516 1-355): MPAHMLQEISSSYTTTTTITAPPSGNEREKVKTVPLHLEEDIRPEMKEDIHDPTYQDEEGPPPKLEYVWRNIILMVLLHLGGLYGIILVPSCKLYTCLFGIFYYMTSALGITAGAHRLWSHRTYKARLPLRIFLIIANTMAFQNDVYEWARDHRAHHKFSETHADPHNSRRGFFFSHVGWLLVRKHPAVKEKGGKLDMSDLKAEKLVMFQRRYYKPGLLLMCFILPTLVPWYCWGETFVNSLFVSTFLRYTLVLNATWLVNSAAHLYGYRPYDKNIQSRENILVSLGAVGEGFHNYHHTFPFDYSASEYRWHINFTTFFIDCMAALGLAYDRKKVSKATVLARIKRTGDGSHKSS
Description: Preparation of Mouse Liver Microsomes:
The absence of mitochondrial contamination is enzymatically assessed.
Incubation of Mouse Liver Microsomes with Test Compounds: […]

SCD = molecular target: T2, SCD (Homo sapiens, UniProt O00767); assay: Cell IC50 of SCD inhibitors (Table 1, no method given); assay type: cell-based; details: cell assay, cell type not stated
T2 sequence (O00767 1-359): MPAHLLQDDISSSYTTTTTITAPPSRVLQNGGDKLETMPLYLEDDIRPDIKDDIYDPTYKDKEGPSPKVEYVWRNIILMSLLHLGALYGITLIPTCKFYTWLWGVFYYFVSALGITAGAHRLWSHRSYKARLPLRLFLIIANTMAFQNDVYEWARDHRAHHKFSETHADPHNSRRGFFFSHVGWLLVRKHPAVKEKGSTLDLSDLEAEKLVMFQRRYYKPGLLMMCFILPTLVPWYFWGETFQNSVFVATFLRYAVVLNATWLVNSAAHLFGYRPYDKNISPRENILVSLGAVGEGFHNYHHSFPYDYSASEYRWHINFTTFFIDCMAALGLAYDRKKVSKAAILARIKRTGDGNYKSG

[2] = projected from residual activity at 1 and 10 μM, read-out: Projected IC50
[3] = microsomal assay, read-out: Microsome IC50

Structure (SMILES)	Residual Activity (% remaining, 1 μM) [1]	Residual Activity (% remaining, 10 μM) [1]	IC50 [1, 2]	IC50 [1, 3]	IC50 (SCD)
CN(CCc1ccccc1)c1ccc(N2CCN(C(=O)c3ccccc3C(F)(F)F)CC2)nn1 [Example 1, {4-[6-(METHYLPHENETHYLAMINO)PYRIDAZIN-3-YL]PIPERAZIN-1-YL}-(2-TRIFLUOROMETHYLPHENYL)METHANONE]	86.210 % remaining	57.955 % remaining	10000 to 50000 nM		
CCCS(=O)(=O)Nc1ccc(N2CCN(C(=O)c3ccccc3C(F)(F)F)CC2)nn1 [Example 2, PROPANE-1-SULFONIC ACID {6-[4-(2-TRIFLUOROMETHYLBENZOYL)PIPERAZIN-1-YL]PYRIDAZIN-3-YL}AMIDE]				6250 nM	10500 nM
O=C(c1ccccc1C(F)(F)F)N1CCN(c2ccc(S(=O)(=O)CCc3ccccc3)nn2)CC1 [Example 3, {4-[6-(2-PHENYLETHANESULFONYL)PYRIDAZIN-3-YL]PIPERAZIN-1-YL}-(2-TRIFLUOROMETHYL-PHENYL)METHANONE]				67 nM	111 nM
O=C(c1ccccc1C(F)(F)F)N1CCN(c2ccc([S+]([O-])CCc3ccccc3)nn2)CC1 (stereo not drawn) [Example 4]				67 nM	175 nM
O=C(c1ccccc1C(F)(F)F)N1CCN(c2ccc(OCCc3ccccc3)nn2)CC1 [Example 5, [4-(6-PHENETHYLOXYPYRIDAZIN-3-YL)PIPERAZIN-1-YL]-(2-TRIFLUOROMETHYL-PHENYL)METHANONE]				4550 nM	4300 nM
O=C(c1ccccc1C(F)(F)F)N1CCN(c2ccc(SCCc3ccccc3)nn2)CC1 [Example 6, [4-(6-PHENETHYLSULFANYLPYRIDAZIN-3-YL)PIPERAZIN-1-YL](2-TRIFLUOROMETHYLPHENYL)METHANONE]				60 nM	33 nM

The remaining lines, values ahead:

Residual Activity (% remaining, 1 μM) [1]	Residual Activity (% remaining, 10 μM) [1]	IC50 [1, 2]	IC50 [1, 3]	IC50 (SCD)	Structure (SMILES)
91.144 % remaining	55.946 % remaining	10000 to 50000 nM			O=C(c1ccccc1C(F)(F)F)N1CCN(c2ccc(NCCc3ccccc3)nn2)CC1 [Example 1.1, [4-(6-PHENETHYLAMINOPYRIDAZIN-3-YL)PIPERAZIN-1-YL]-(2-TRIFLUOROMETHYLPHENYL)METHANONE]
53.875 % remaining	29.330 % remaining	1000 to 10000 nM			O=C(c1ccccc1C(F)(F)F)N1CCN(c2ccc(OCCC3CC3)nn2)CC1 [Example 5.1, {4-[6-(2-CYCLOPROPYLETHOXY)PYRIDAZIN-3-YL]PIPERAZIN-1-YL}-(2-TRIFLUOROMETHYLPHENYL)METHANONE]
			447 nM	849 nM	CC(C)CCSc1ccc(N2CCN(C(=O)c3ccccc3C(F)(F)F)CC2)nn1 [Example 6.1, {4-[6-(3-METHYLBUTYLSULFANYL)PYRIDAZIN-3-YL]PIPERAZIN-1-YL}-(2-TRIFLUOROMETHYL-PHENYL)METHANONE]
